In patent US20210139517A1, “BICYCLIC HETEROARYL COMPOUNDS AND USES THEREOF” (Revolution Medicines, Inc., priority 2019, published 2021):

Assays:
[1] = system: SOS1 function in cells: cellular pERK in PC-9 cells (EGFR Ex19Del); assay: pERK potency assay in PC-9 cells (AlphaLISA SureFire Ultra p-ERK1/2); type: cell-based; conditions: Homo sapiens, PC-9, 1 h, 1 hour incubation
Description: The purpose of this assay is tomeasure the ability of test compounds to inhibit SOS1 function in cells. SOS1 activates RAS proteins by catalyzing the conversion of RAS-GDP to RAS-GTP in response to receptor tyrosine kinase activation. […] The procedure described below measures the level of cellular pERK in response to test compounds in PC-9 cells (EGFR Ex19Del).
PC-9 cells were grown and maintained using media and procedures recommended by the ATCC. On the day prior to compound addition, cells were plated in 384-well cell culture plates (40 μL/well) and grown overnight in a 37° C., 5% CO2 incubator. Test compounds were prepared in 10, 3-fold dilutions in DMSO, with a top concentration of 10 mM. On the day of the assay, 40 nL of test compound was added to each well of cell culture plate using an Echo550 liquid handler (LabCyte). Concentrations of test compound were tested in duplicate with highest test concentration being 10 μM. After compound addition, cells were incubated for 1 hour at 37° C., 5% CO2. Following incubation, culture medium was removed and cells were washed once with phosphate buffered saline.
Cellular pERK level was determined using the AlphaLISA SureFire Ultra p-ERK1/2 Assay Kit (PerkinElmer). Cells were lysed in 25 μL lysis buffer, with shaking at 600 RPM at room temperature for 15 minutes. Lysate (10 μL) was transferred to a 384-well Opti-plate (PerkinElmer) and 5 μL acceptor mix was added. The plate was centrifuged at 1000 RPM for 1 minute, and incubated in the dark for 2 hours. Following this incubation, 5 μL of donor mix was added, the plate was sealed and centrifuged at 1000 RPM for 1 minute, and the mixture was incubated for 2 hours at room temperature. Signal was read on an Envision plate reader (PerkinElmer) using standard AlphaLISA settings. Analysis of raw data was carried out in Excel (Microsoft) and Prism (GraphPad). Signal was plotted vs. the decadal logarithm of compound concentration, and IC50 was determined by fitting a 4-parameter sigmoidal concentration response model.

[2] = target: T1, SOS1 catalytic domain (residues 564-1049) (Homo sapiens, UniProt Q07889); assay: SOS1 SPR binding affinity assay (Biacore 8K); conditions: avi-tagged SOS1 catalytic domain immobilized on streptavidin chip; equilibrium 1:1 binding fit; read-out: SOS1 SPR Equilibrium Kd
T1 sequence (Q07889 564-1049): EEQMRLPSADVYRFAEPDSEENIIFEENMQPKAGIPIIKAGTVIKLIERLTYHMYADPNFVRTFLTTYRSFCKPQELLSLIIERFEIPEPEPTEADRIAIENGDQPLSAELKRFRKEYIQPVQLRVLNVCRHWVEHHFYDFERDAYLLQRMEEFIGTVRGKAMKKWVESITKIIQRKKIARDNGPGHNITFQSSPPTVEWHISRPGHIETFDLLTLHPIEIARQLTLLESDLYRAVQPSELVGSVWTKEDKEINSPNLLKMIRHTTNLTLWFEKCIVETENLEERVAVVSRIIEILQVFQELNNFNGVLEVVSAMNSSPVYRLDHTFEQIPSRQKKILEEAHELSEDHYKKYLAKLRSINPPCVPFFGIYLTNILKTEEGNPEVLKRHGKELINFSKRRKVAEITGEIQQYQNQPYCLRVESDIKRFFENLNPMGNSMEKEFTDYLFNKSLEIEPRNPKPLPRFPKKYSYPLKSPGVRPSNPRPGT

[3] = target: T2, SOS1 nucleotide exchange of wild-type KRAS (SOS1 catalytic domain residues 564-1049; KRAS residue 1-169) (Homo sapiens, UniProt Q07889); assay: Inhibition of SOS1 nucleotide exchange activity of KRAS (TR-FRET); type: biochemical; conditions: SOS1 nucleotide exchange of wild-type KRAS; three replicates; four-parameter logistic fit; read-out: TR-FRET IC50
T2 sequence (Q07889 564-1049): T1 sequence (Q07889 564-1049)

C[C@@H](Nc1ncnc2c1cc(N1CCOCC1)c(=O)n2C)c1cc(N)cc(C(F)(F)F)c1 [Example 12, 4-{[(1R)-1-[3-amino-5-(trifluoromethyl)phenyl]ethyl]amino}-8-methyl-6-(morpholin-4-yl)-7H,8H-pyrido[2,3-d]pyrimidin-7-one]
IC50 [1]: 101 nM
Kd [2]: 7.94 nM
IC50 [3]: 13.6 nM

Cc1nc(N[C@H](C)c2cccc(C(F)F)c2F)c2cc(CN3CCOCC3)c(=O)n(C)c2n1 [Example 27, 4-{[(1R)-1-[3-(difluoromethyl)-2-fluorophenyl]ethyl]amino}-2,8-dimethyl-6-[(morpholin-4-yl)meth-yl]-7H,8H-pyrido[2,3-d]pyrimidin-7-one]
Kd [2]: 550 nM
IC50 [3]: 192 nM

C[C@@H](Nc1ncnc2c1cc(C1=CCS(=N)(=O)CC1)c(=O)n2C)c1cccc(C(F)F)c1F (stereo partly drawn) [Example 23, 4-(((R)-1-(3-(difluoromethyl)-2-fluorophenyl)ethyl)amino)-6-(1-imino-1-oxido-1,2,3,6-tetrahydro-1λ^6-thiopyran-4-yl)-8-methylpyrido[2,3-d]pyrimidin-7(8H)-one]
Kd [2]: 19.8 nM
IC50 [3]: 20.9 nM

Cc1nc(N[C@H](C)c2cccc(C(F)F)c2F)c2cc(C3CCN(C)CC3F)c(=O)n(C)c2n1 (stereo partly drawn) [Example 18, 4-[[(1R)-1-[3-(difluoromethyl)-2-fluoro-phenyl]ethyl]amino]-6-(3-fluoro-1-methyl-4-piperidyl)-2,8-dimethyl-pyrido[2,3-d]pyrimidin-7-one]
IC50 [1]: 190 nM
Kd [2]: 16 nM
IC50 [3]: 5.79 nM

C[C@@H](Nc1ncnc2c1cc(N1CCOCC1)c(=O)n2C)c1cccc(C(F)(F)F)c1 [Example 13, 8-methyl-6-(morpholin-4-yl)-4-{[(1R)-1-[3-(trifluoromethyl)phenyl]-ethyl]amino}-7H,8H-pyrido[2,3-d]pyrimidin-7-one]
IC50 [1]: 321 nM
Kd [2]: 28.3 nM
IC50 [3]: 29.4 nM

Cc1nc(N[C@H](C)c2cccc(C(F)F)c2F)c2cc(C(=O)N3CCOCC3)c(=O)n(C)c2n1 [Example 26, 4-{[(1R)-1-[3-(difluoromethyl)-2-fluorophenyl]ethyl]amino}-2,8-dimethyl-6-(morpholine-4-carbonyl)-7H,8H-pyrido[2,3-d]pyrimidin-7-one]
Kd [2]: 115 nM
IC50 [3]: 70.2 nM

C[C@@H](Nc1ncnc2c1cc(-c1ccnnc1)c(=O)n2C)c1cccc(C(F)F)c1F [Example 21, (R)-4-((1-(3-(difluoromethyl)-2-fluorophenyl)ethyl)amino)-8-methyl-6-(pyridazin-4-yl)pyrido[2,3-d]pyrimidin-7(8H)-one]
IC50 [1]: 136 nM
Kd [2]: 32.7 nM
IC50 [3]: 18 nM

CC(=O)N1CCC(c2cc3c(N[C@H](C)c4cc(N)cc(C(F)(F)F)c4F)ncnc3n(C)c2=O)CC1 [Example 19, 6-(1-acetyl-4-piperidyl)-4-[[(1R)-1-[5-amino-2-fluoro-3-(trifluoromethyl)phenyl]ethyl]amino]-8-methyl-pyrido[2,3-d]pyrimidin-7-one]
IC50 [1]: 49.2 nM
Kd [2]: 32.4 nM
IC50 [3]: 12.3 nM

C[C@@H](Nc1ncnc2c1cc(C(=O)N1CC3CCC1CO3)c(=O)n2C)c1cccc(C(F)F)c1F (some centres unmarked) [Example 26-18]
Kd [2]: 150 nM
IC50 [3]: 78.6 nM

CC(=O)N1CCC(c2cc3c(N[C@H](C)c4cc(C(F)(F)F)cc(N)c4F)ncnc3n(C)c2=O)CC1 [Example 15, 6-(1-acetyl-4-piperidyl)-4-[[(1R)-1-[3-amino-2-fluoro-5-(trifluoromethyl)phenyl]ethyl]amino]-8-methyl-pyrido[2,3-d]pyrimidin-7-one]
IC50 [1]: 391 nM
Kd [2]: 168 nM
IC50 [3]: 90.4 nM
